Laboratory results published in PubChem BioAssay (NCI).
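How tested: cells in 96-well plates exposed to compound for 48 hours at five concentrations. Here, GI50 denotes the concentration required for 50% inhibition of growth. TGI denotes the concentration required for complete inhibition of growth.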

Experiments:
Assay in all cases: NCI anticancer screen, dose series, 48 h
NCI-H226 lung = test system: NCI-H226 lung
KM12 colon = test system: KM12 colon
RPMI-8226 leukemia = test system: RPMI-8226 leukemia
EKVX NSCLC = test system: EKVX NSCLC
UACC-62 melanoma = test system: UACC-62 melanoma
NCI-H522 lung = test system: NCI-H522 lung
HOP-92 NSCLC = test system: HOP-92 NSCLC
CCRF-CEM leukemia = test system: CCRF-CEM leukemia
SK-MEL-5 melanoma = test system: SK-MEL-5 melanoma
NCI-H460 lung = test system: NCI-H460 lung

| Compound | TGI (NCI-H226 lung) [µM] | TGI (KM12 colon) [µM] | TGI (RPMI-8226 leukemia) [µM] | TGI (EKVX NSCLC) [µM] | TGI (UACC-62 melanoma) [µM] | TGI (NCI-H522 lung) [µM] | TGI (HOP-92 NSCLC) [µM] | TGI (CCRF-CEM leukemia) [µM] | TGI (SK-MEL-5 melanoma) [µM] | TGI (NCI-H460 lung) [µM] | GI50 (NCI-H226 lung) [µM] | GI50 (KM12 colon) [µM] | GI50 (RPMI-8226 leukemia) [µM] | GI50 (EKVX NSCLC) [µM] | GI50 (UACC-62 melanoma) [µM] | GI50 (NCI-H522 lung) [µM] | GI50 (HOP-92 NSCLC) [µM] | GI50 (CCRF-CEM leukemia) [µM] | GI50 (SK-MEL-5 melanoma) [µM] | GI50 (NCI-H460 lung) [µM] |
| --- | --- | --- | --- | --- | --- | --- | --- | --- | --- | --- | --- | --- | --- | --- | --- | --- | --- | --- | --- | --- |
| COc1ccc2c(-c3cc4ccccc4o3)cc(=O)oc2c1 | > 100 | > 100 | > 100 | > 100 | > 100 | > 91.8 | 75.3 | > 100 | > 100 | > 100 | – | – | – | – | – | – | – | – | – | – |
| Cc1c(-c2nc(N)nc(C3CC3)c2C)nc(N)nc1C1CC1 | > 100 | > 100 | > 100 | > 100 | > 100 | > 100 | > 100 | > 100 | > 100 | > 100 | – | – | – | – | – | – | – | – | – | – |
| O=c1c2ccccc2c2c3c1cccc3c1cccc3c(=O)c4ccccc4c2c31 | > 100 | > 100 | – | > 100 | > 100 | > 100 | > 100 | > 100 | > 100 | > 100 | – | – | – | – | – | – | – | – | – | – |
| COc1ccc2c(c1)[C@@]13CCN4CC5=CCO[C@H]6CC(=O)N2[C@H]1[C@H]6[C@H]5C[C@H]43 | 30.9 | > 100 | > 100 | > 100 | > 100 | > 100 | > 100 | > 100 | > 100 | > 100 | – | – | – | – | – | – | – | – | – | – |
| Clc1ccc(OCc2nnc3n2N=C(c2ccc(Cl)cc2Cl)CS3)c(Cl)c1 | 43.2 | > 100 | 63.7 | 74.1 | 32.2 | 37.6 | 89.2 | 89.7 | 33 | 56.3 | 17.6 | 25.5 | 23.4 | 26.2 | 14.1 | 14.5 | 19.6 | 22.3 | 15.5 | 19.3 |
| O=C1c2ccccc2-c2cccc3ccc(Cc4ccccc4)c1c23 | – | > 100 | > 100 | > 100 | > 100 | > 100 | > 100 | > 100 | > 100 | > 100 | – | – | – | – | – | – | – | – | – | – |
| COC(=O)c1c(O)ccc2[nH]c(C)c(C#N)c12 | 70.6 | > 100 | > 100 | > 100 | 90.4 | > 100 | 91.9 | – | > 100 | > 100 | 28.5 | 39.5 | 27.3 | 96.2 | 25.7 | 83.4 | 30.3 | – | 24.3 | 37.3 |
| CN(C)C(=S)/N=c1\ss/c(=N\S(=O)(=O)c2ccccc2)n1-c1ccccc1 | > 100 | > 100 | > 100 | > 100 | > 100 | > 100 | 67 | > 100 | 78.3 | – | – | – | – | – | – | – | – | – | – | – |
| CN(C)CCNC(=O)Nc1c(C#N)[n+]([O-])c2cc(Cl)c(Cl)cc2[n+]1[O-] | > 100 | 43.1 | > 100 | > 100 | 66.5 | 35.3 | 99 | > 100 | 38.1 | > 100 | 22.3 | 13.3 | 8.65 | 36.8 | 10.2 | 13.1 | 18.1 | 6.88 | 14.3 | 21.1 |
